Patent US8557995B2, “Solid dispersions containing kinase inhibitors” (AbbVie Inc., priority 2010, dated 2013)

Assay: solubility in water
Type: physicochemical
Conditions: pH 7.4, aqueous buffer
Text: Examples of such active ingredients are, for example, Biopharmaceutics Classification System (BCS) Class IV drug substances that are characterized by low solubility and low permeability (see “Waiver of in vivo bioavailability and bioequivalence studies for immediate-release solid oral dosage forms based on a biopharmaceutics classification system”, U.S. Department of Health and Human Services, Food and Drug Administration, Center for Drug Evaluation and Research (CDER), August 2000). It will be recognized that aqueous solubility of many compounds is pH-dependent; in the case of such compounds the solubility of interest herein is at a physiologically relevant pH, for example a pH of about 1 to about 8.

solubility: < 0.03 µg/mL
SMILES: Nc1ncc(-c2cnn(CCO)c2)c2scc(-c3ccc(NC(=O)Nc4cccc(F)c4)cc3)c12 [N-(4-{4-amino-7-[1-(2-hydroxyethyl)-1H-pyrazol-4-yl]thieno[3,2-c]pyridin-3-yl}phenyl)-N′-(3-fluorophenyl)urea]
